Source: PMC7093416, “Selective USP7 inhibition elicits cancer cell killing through a p53-dependent mechanism” (Scientific Reports, 2020)
Where “and” joins values, the source holds several entries; their conditions need not be identical. Equal values may be shown once.

Test system: panel of 484 cancer cell lines
Experiment: PRISM cancer cell line profiling, 5 days
Format: cell-based
Parameters: Viability: scale not given here; AUC: unit not given beside the values
Experimental: Cancer cell line profiling was performed using the Broad’s PRISM platform. Cell treatment and data analysis were performed as described in Yu et al[42]. Raw Luminex signal was converted to AUC values for each cell line as described. The resulting AUC profile for each compound was modeled against DepMap using the limma package in R[71]. Because hotspot mutation analysis was performed against DepMap, TP53 annotations in Fig. 6c,d are directly from DepMap.

[1] = CAL12T_LUNG, pert_dose 6.10E-04
[2] = CAL27_UPPER_AERODIGESTIVE_TRACT, pert_dose 6.10E-04
[3] = CAL29_URINARY_TRACT, pert_dose 6.10E-04

COc1ccc(C2=N[C@@H](c3ccc(Cl)cc3)[C@@H](c3ccc(Cl)cc3)N2C(=O)N2CCNC(=O)C2)c(OC(C)C)c1 [Nutlin-3A]
Viability (CAKI1_KIDNEY, pert_dose 6.10E-04): 1.281
AUC (CAL12T_LUNG): 1.284
MFI CAL12T_LUNG [1]: 11558 and 13284 and 9249.5 and 12951.5 and 13183
Viability [1]: 1.338
AUC (CAL27_UPPER_AERODIGESTIVE_TRACT): 1.085
MFI CAL27_UPPER_AERODIGESTIVE_TRACT [2]: 20059.5 and 19151.5 and 25415 and 19627.5 and 22725.5
Viability [2]: 1.031
AUC (CAL29_URINARY_TRACT): 1.177
MFI CAL29_URINARY_TRACT [3]: 9011 and 8957 and 10277.5 and 8231.5 and 10904
Viability [3]: 1.551
AUC (CAL51_BREAST): 1.0736
MFI CAL51_BREAST (CAL51_BREAST, pert_dose 6.10E-04): 12828 and 10989 and 10227 and 16366 and 8548.5
AUC (CAL54_KIDNEY): 1.148
Viability (CAL54_KIDNEY, pert_dose 6.10E-04): 1.061
AUC (CAL62_THYROID): 1.139
MFI CAL62_THYROID (CAL62_THYROID, pert_dose 6.10E-04): 19352 and 23281.5 and 23347 and 21690 and 18079
AUC (CAL78_BONE): 1.142
AUC (CAL120_BREAST): 1.092
MFI CAL120_BREAST (CAL120_BREAST, pert_dose 6.10E-04): 15064 and 12880 and 13041 and 15017 and 12012.5
AUC (CALU1_LUNG): 0.9872
AUC (CALU6_LUNG): 1.11
MFI CALU6_LUNG (CALU6_LUNG, pert_dose 6.10E-04): 19804 and 26726 and 21267 and 25781.5 and 28928.5
AUC (CAMA1_BREAST): 1.153
MFI CAMA1_BREAST (CAMA1_BREAST, pert_dose 6.10E-04): 1412 and 1959.5 and 1768 and 1670.5 and 1819.5
AUC (CAOV3_OVARY): 1.212
MFI CAOV3_OVARY (CAOV3_OVARY, pert_dose 6.10E-04): 4238 and 2774 and 4113 and 2696.5 and 4069
AUC (CAPAN2_PANCREAS): 1.279
AUC (CCFSTTG1_CENTRAL_NERVOUS_SYSTEM): 0.9997
MFI CCFSTTG1_CENTRAL_NERVOUS_SYSTEM (CCFSTTG1_CENTRAL_NERVOUS_SYSTEM, pert_dose 6.10E-04): 2625 and 1957.5 and 2163 and 2860 and 1678.5
AUC (CFPAC1_PANCREAS): 1.133
MFI CFPAC1_PANCREAS (CFPAC1_PANCREAS, pert_dose 6.10E-04): 12988 and 12890.5 and 8831 and 16982.5 and 13585.5
AUC (CHL1_SKIN): 1.101
MFI CHL1_SKIN (CHL1_SKIN, pert_dose 6.10E-04): 25277 and 22527.5 and 16250 and 20018.5 and 22530
AUC (CJM_SKIN): 1.181
MFI CJM_SKIN (CJM_SKIN, pert_dose 6.10E-04): 9757.5 and 5484 and 9139.5 and 7090.5 and 8423
AUC (CL34_LARGE_INTESTINE): 1.025
MFI CL34_LARGE_INTESTINE (CL34_LARGE_INTESTINE, pert_dose 6.10E-04): 3669 and 4269 and 5343.5 and 2751 and 2702
AUC (COLO668_LUNG): 1.1
AUC (COLO679_SKIN): 0.88
MFI COLO679_SKIN (COLO679_SKIN, pert_dose 6.10E-04): 6568.5 and 8262 and 8427 and 10413 and 7461
AUC (COLO680N_OESOPHAGUS): 1.159
MFI COLO680N_OESOPHAGUS (COLO680N_OESOPHAGUS, pert_dose 6.10E-04): 5933.5 and 4468 and 6131 and 5620 and 4657
AUC (COLO741_SKIN): 1.078
MFI COLO741_SKIN (COLO741_SKIN, pert_dose 6.10E-04): 3302 and 2497 and 3485 and 3755 and 2923
AUC (COLO783_SKIN): 1.125
MFI COLO783_SKIN (COLO783_SKIN, pert_dose 6.10E-04): 9292.5 and 11134.5 and 11660 and 10125 and 10684
AUC (COLO792_SKIN): 0.8537
MFI COLO792_SKIN (COLO792_SKIN, pert_dose 6.10E-04): 5216 and 3883.5 and 6906 and 3698 and 6181
AUC (COLO800_SKIN): 0.9456
MFI COLO800_SKIN (COLO800_SKIN, pert_dose 6.10E-04): 9562 and 9966.5 and 9539 and 8965 and 10824
AUC (CORL23_LUNG): 1.082
MFI CORL23_LUNG (CORL23_LUNG, pert_dose 6.10E-04): 18251 and 21912.5 and 23721 and 22738.5 and 19507.5
AUC (CORL105_LUNG): 0.9293
MFI CORL105_LUNG (CORL105_LUNG, pert_dose 6.10E-04): 3831.5 and 2259.5 and 3159 and 2363.5 and 2088.5
AUC (COV362_OVARY): 1.112
MFI COV362_OVARY (COV362_OVARY, pert_dose 6.10E-04): 17061 and 16771 and 18006 and 14276 and 17716.5
AUC (COV434_OVARY): 0.499
MFI COV434_OVARY (COV434_OVARY, pert_dose 6.10E-04): 2287 and 4116 and 4254.5 and 3247 and 3013
AUC (DANG_PANCREAS): 1.183
MFI DANG_PANCREAS (DANG_PANCREAS, pert_dose 6.10E-04): 3936.5 and 2389 and 3329.5 and 4098 and 2374
AUC (DAOY_CENTRAL_NERVOUS_SYSTEM): 1.063
MFI DAOY_CENTRAL_NERVOUS_SYSTEM (DAOY_CENTRAL_NERVOUS_SYSTEM, pert_dose 6.10E-04): 3341 and 3770 and 5391 and 3660 and 5169
AUC (DBTRG05MG_CENTRAL_NERVOUS_SYSTEM): 0.8565
MFI DBTRG05MG_CENTRAL_NERVOUS_SYSTEM (DBTRG05MG_CENTRAL_NERVOUS_SYSTEM, pert_dose 6.10E-04): 9502 and 12025.5 and 11037.5 and 11248 and 13043
AUC (DETROIT562_UPPER_AERODIGESTIVE_TRACT): 1.165
MFI DETROIT562_UPPER_AERODIGESTIVE_TRACT (DETROIT562_UPPER_AERODIGESTIVE_TRACT, pert_dose 6.10E-04): 11765 and 10497.5 and 16246.5 and 13989 and 13619
AUC (DKMG_CENTRAL_NERVOUS_SYSTEM): 0.8274
AUC (DMS273_LUNG): 1.073
MFI DMS273_LUNG (DMS273_LUNG, pert_dose 6.10E-04): 11114.5 and 10196.5 and 9771 and 10022 and 13797
AUC (DU145_PROSTATE): 1.079
MFI DU145_PROSTATE (DU145_PROSTATE, pert_dose 6.10E-04): 21126.5 and 23687 and 17071 and 16938.5 and 18848
AUC (DV90_LUNG): 0.8353
MFI DV90_LUNG (DV90_LUNG, pert_dose 6.10E-04): 7893 and 6981 and 9620.5 and 7167 and 6096.5
∆ (AUC, TP53 mutation vs WT; decreased sensitivity) (DepMap TP53 mutation annotation): 0.0919
AUC (EBC1_LUNG): 1.0742
MFI EBC1_LUNG (EBC1_LUNG, pert_dose 6.10E-04): 12931 and 11768 and 13134.5 and 11101.5 and 10612
AUC (ECGI10_OESOPHAGUS): 1.177
AUC (EFM192A_BREAST): 1.203
AUC (EFO21_OVARY): 1.106
MFI EFO21_OVARY (EFO21_OVARY, pert_dose 6.10E-04): 6907 and 7302 and 6854 and 7260 and 4429
AUC (EFO27_OVARY): 1.1574
MFI EFO27_OVARY (EFO27_OVARY, pert_dose 6.10E-04): 9100.5 and 10537 and 7873 and 14276 and 9706
AUC (EN_ENDOMETRIUM): 1.075
AUC (ES2_OVARY): 1.089
MFI ES2_OVARY (ES2_OVARY, pert_dose 6.10E-04): 18459 and 23432 and 12997.5 and 16216 and 13403
AUC (ESS1_ENDOMETRIUM): 1.129
MFI ESS1_ENDOMETRIUM (ESS1_ENDOMETRIUM, pert_dose 6.10E-04): 2916 and 2399 and 2841.5 and 2277 and 1505
AUC (EWS502_BONE): 1.109
MFI EWS502_BONE (EWS502_BONE, pert_dose 6.10E-04): 3099 and 3510.5 and 2209 and 3124 and 3278.5
AUC (FADU_UPPER_AERODIGESTIVE_TRACT): 1.169
MFI FADU_UPPER_AERODIGESTIVE_TRACT (FADU_UPPER_AERODIGESTIVE_TRACT, pert_dose 6.10E-04): 3959.5 and 4203 and 5203 and 4740.5 and 7313
AUC (FTC133_THYROID): 1.156
